{"source": "patent US12486278B2", "about": "“MASP-2 inhibitors and methods of use” (Omeros Corporation, priority 2019, dated 2025)", "note": "Structures can show the parent of a compound that is named as a salt."}
{"target": "T1, MASP-2 (CCP1-CCP2-SP) (Homo sapiens, UniProt O00187)", "T1 construct": "15 μL of Enzyme MASP-2 (CCP1-CCP2-SP) in Assay Buffer", "T1 sequence (O00187 445-686 limits assumed)": "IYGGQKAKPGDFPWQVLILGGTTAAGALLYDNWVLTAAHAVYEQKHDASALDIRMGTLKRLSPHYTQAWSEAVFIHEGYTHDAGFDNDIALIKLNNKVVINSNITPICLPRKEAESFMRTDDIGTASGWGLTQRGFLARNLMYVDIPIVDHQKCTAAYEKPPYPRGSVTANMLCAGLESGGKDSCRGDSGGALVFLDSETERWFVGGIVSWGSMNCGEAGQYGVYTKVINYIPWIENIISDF", "T1 sequence (O00187 298-444 partner limits assumed)": "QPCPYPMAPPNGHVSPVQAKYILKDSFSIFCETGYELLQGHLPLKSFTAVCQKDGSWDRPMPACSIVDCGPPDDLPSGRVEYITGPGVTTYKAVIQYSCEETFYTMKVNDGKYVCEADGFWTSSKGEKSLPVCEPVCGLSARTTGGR", "assay": "Enzymatic Assay for MASP-2 (fluorogenic substrate)", "assay_type": "biochemical", "conditions": "fluorogenic substrate based on C2 cleavage site; room temperature, 20 min; 20 mM HEPES pH 7.4, 140 mM NaCl, 0.1% Tween 20", "method": "The MASP-2 assay utilizes a fluorogenic substrate, based on the cleavage site for its natural substrate C2. The assay is run at room temperature in an assay buffer containing 20 mM HEPES, pH 7.4, 140 mM NaCl and 0.1% Tween 20. Assay parameters are adjusted such that the assay is linear with respect to time, enzyme, and substrate concentrations. Under these optimized assays conditions, IC50 values are equivalent to Ki values, except in a few cases of “tight binding” inhibitors. Cases of “tight binding” or possible “slow binding” inhibitors are handled by the methods described in Copeland R. A. (2013) Evaluation of Enzyme Inhibitors in Drug Discovery. 2nd Ed., John Wiley and Sons, Inc., Chapters 5-7.\nThe MASP-2 assay protocol is carried out as follows. Test compounds are serially diluted in DMSO and then 100 nL of each dilution is transferred to the assay plate(s). 10 μL of Assay Buffer is added, followed by 15 μL of Enzyme MASP-2 (CCP1-CCP2-SP) in Assay Buffer. 15 μL of Substrate in Assay Buffer is then added and mixed to start the reactions. After 20 min at room temperature, 15 μL of a stop solution (0.1 M acetic acid) is added, mixed and the plates are read on a SpectraMax i3x Microplate Reader and exported as Excel files. Each assay plate included a “no inhibitor” (DMSO Only) control, a “no enzyme” control and a reference inhibitor control. % Activity values=100*(average test comp. fluorescence−average “no enzyme” fluorescence)/(average “DMSO only” fluorescence−average “no enzyme” fluorescence). IC50 and Ki values are very reproducible, falling well within ±2-fold.", "units": {"Ki": "nM"}}
{"smiles": "C[C@H](NC(=O)[C@H]1C[C@H](Cc2ccc(F)c(Cl)c2)CN1CCC(=O)O)C(=O)NCc1ccc(C(=N)N)cc1", "note": "[Compound I-36, 3-((2R,4S)-2-(((S)-1-((4-Carbamimidoylbenzyl)Amino)-1-Oxopropan-2-Yl)Carbamoyl)-4-(3-Chloro-4-Fluorobenzyl)Pyrrolidin-1-Yl)Propanoic Acid Di-Trifluoroacetate]", "Ki": "< 500"}
{"smiles": "C[C@H](NC(=O)[C@H]1C[C@@H](c2ccc(-c3ccccc3)cc2)CCN1)C(=O)NCc1cc(Cl)ccc1-n1cnnn1", "note": "[Compound I-102, (2R,4S)-4-([1,1′-Biphenyl]-4-yl)-N—((S)-1-((5-chloro-2-(1H-tetrazol-1-yl)benzyl)amino)-1-oxopropan-2-yl)piperidine-2-carboxamide trifluoroacetate]", "Ki": "< 500"}
{"smiles": "Cc1cc(C)n(-c2ccc([C@H]3CCN[C@@H](C(=O)N[C@@H](C)C(=O)NCc4ccc(C(=N)N)cc4)C3)cc2)n1", "note": "[Compound I-75, (2R,4S)—N—((S)-1-((4-Carbamimidoylbenzyl)Amino)-1-Oxopropan-2-Yl)-4-(4-(3,5-Dimethyl-1H-Pyrazol-1-Yl)Phenyl)Piperidine-2-Carboxamide Dihydrochloride]", "Ki": "< 500"}
{"smiles": "Cc1nc(N)ccc1CNC(=O)[C@@H]1CCN1C(=O)[C@H]1C[C@H](Cc2ccc(-c3ccccc3)cc2)CN1", "note": "[Compound I-62, (S)-1-((2R,4S)-4-([1,1′-Biphenyl]-4-Ylmethyl)Pyrrolidine-2-Carbonyl)-N-((6-Amino-2-Methylpyridin-3-Yl)Methyl)Azetidine-2-Carboxamide Di-Trifluoroacetate]", "Ki": "< 500"}
{"smiles": "COC(=O)c1cccc(C[C@@H]2CN[C@@H](C(=O)N[C@@H](C)C(=O)NCc3ccc(N)nc3C)C2)c1", "note": "[Compound I-47, Methyl 3-(((3S,5R)-5-(((S)-1-(((6-Amino-2-Methylpyridin-3-Yl)Methyl)Amino)-1-Oxopropan-2-Yl)Carbamoyl)Pyrrolidin-3-Yl)Methyl)Benzoate Dihydrochloride]", "Ki": "< 500"}
{"smiles": "C[C@H](NC(=O)[C@H]1C[C@H](c2ccccc2)CN1)C(=O)NCc1cc2c(Br)cncc2[nH]1", "note": "[Compound I-1, (2R,4R)—N—((S)-1-(((4-bromo-1H-pyrrolo[2,3-c]pyridin-2-yl)methyl)amino)-1-oxopropan-2-yl)-4-phenylpyrrolidine-2-carboxamide di-trifluoroacetate]", "Ki": "> 10000"}
{"smiles": "N=C(N)c1ccc(CNC(=O)[C@@H]2CCN2C(=O)[C@H]2C[C@@H](c3ccccc3)CCN2)cc1", "note": "[Compound I-66, (S)—N-(4-Carbamimidoylbenzyl)-1-((2R,4S)-4-Phenylpiperidine-2-Carbonyl)Azetidine-2-Carboxamide Trifluoroacetate]", "Ki": "< 500"}
{"smiles": "C[C@H](NC(=O)[C@H]1C[C@H](Oc2ccccc2)CN1)C(=O)NCc1cnc2c(c1)c(Cl)cn2C", "note": "[Compound I-46, (2R,4S)—N—((S)-1-(((3-Chloro-1-Methyl-1H-Pyrrolo[2,3-B]Pyridin-5-Yl)Methyl)Amino)-1-Oxopropan-2-Yl)-4-Phenoxypyrrolidine-2-Carboxamide Trifluoroacetate]", "Ki": "< 500"}
{"smiles": "C[C@H](NC(=O)[C@H]1C[C@H](Cc2ccc(F)c(Cl)c2)CN1)C(=O)NCc1cnc2[nH]cc(Cl)c2c1", "note": "[Compound I-25, (2R,4S)—N—((S)-1-(((3-Chloro-1H-Pyrrolo[2,3-B]Pyridin-5-Yl)Methyl)Amino)-1-Oxopropan-2-Yl)-4-(3-Chloro-4-Fluorobenzyl)Pyrrolidine-2-Carboxamide Trifluoroacetate]", "Ki": "< 500"}
{"smiles": "C[C@H](NC(=O)[C@H]1C[C@H](Cc2cccc(Cl)c2)CN1)C(=O)NCc1cnc2[nH]cc(Cl)c2c1", "note": "[Compound I-82, (2R,4S)—N—((S)-1-(((3-Chloro-1H-Pyrrolo[2,3-B]Pyridin-5-Yl)Methyl)Amino)-1-Oxopropan-2-Yl)-4-(3-Chlorobenzyl)Pyrrolidine-2-Carboxamide Dihydrochloride]", "Ki": "< 500"}
{"smiles": "C[C@H](NC(=O)[C@H]1C[C@@H](c2ccccc2)CCN1CC(=O)O)C(=O)NCc1ccc(C(=N)N)cc1", "note": "[Compound I-34, 2-((2R,4S)-2-(((S)-1-((4-Carbamimidoylbenzyl)Amino)-1-Oxopropan-2-Yl)Carbamoyl)-4-Phenylpiperidin-1-Yl)Acetic Acid Di-Trifluoroacetate]", "Ki": "< 500"}
{"smiles": "Cc1nc(N)ccc1CNC(=O)[C@H](C)NC(=O)[C@H]1C[C@H](Cc2cc(Cl)cs2)CN1", "note": "[Compound I-87, (2R,4R)—N—((S)-1-(((6-Amino-2-Methylpyridin-3-Yl)Methyl)Amino)-1-Oxopropan-2-Yl)-4-((4-Chlorothiophen-2-Yl)Methyl)Pyrrolidine-2-Carboxamide Dihydrochloride]", "Ki": "< 500"}
{"smiles": "C[C@H](NC(=O)[C@H]1C[C@@H](c2cccc(-n3cccn3)c2)CCN1)C(=O)NCc1ccc(C(=N)N)cc1", "note": "[Compound I-77, (2R,4S)-4-(3-(1H-Pyrazol-1-Yl)Phenyl)-N—((S)-1-((4-Carbamimidoylbenzyl)Amino)-1-Oxopropan-2-Yl)Piperidine-2-Carboxamide Dihydrochloride]", "Ki": "< 500"}
{"smiles": "C[C@H](NC(=O)[C@H]1C[C@@H](c2ccncc2)CN1)C(=O)NCc1ccc(C(=N)N)cc1", "note": "[Compound I-95, (2R,4S)—N—((S)-1-((4-carbamimidoylbenzyl)amino)-1-oxopropan-2-yl)-4-(pyridin-4-yl)pyrrolidine-2-carboxamide di-trifluoroacetate]", "Ki": "500 to 2500"}
{"smiles": "CCOC(=O)CCN1CC[C@H](c2ccccc2)C[C@@H]1C(=O)N[C@@H](C)C(=O)NCc1ccc(C(=N)N)cc1", "note": "[Compound I-31, Ethyl 3-((2R,4S)-2-(((S)-1-((4-Carbamimidoylbenzyl)Amino)-1-Oxopropan-2-Yl)Carbamoyl)-4-Phenylpiperidin-1-Yl)Propanoate]", "Ki": "< 500"}
{"smiles": "COC(=O)c1cccc(C[C@@H]2CN[C@@H](C(=O)N[C@@H](C)C(=O)NCc3ccc(C(=N)N)cc3)C2)c1", "note": "[Compound I-54, Methyl 3-(((3S,5R)-5-(((S)-1-((4-Carbamimidoylbenzyl)Amino)-1-Oxopropan-2-Yl)Carbamoyl)Pyrrolidin-3-Yl)Methyl)Benzoate Di-Trifluoroacetate]", "Ki": "< 500"}
{"smiles": "Cc1nc(N)ccc1CNC(=O)[C@H](C)NC(=O)[C@H]1C[C@H](Cc2cccc(C(=O)O)c2)CN1", "note": "[Compound I-48, 3-(((3S,5R)-5-(((S)-1-(((6-Amino-2-Methylpyridin-3-Yl)Methyl)Amino)-1-Oxopropan-2-Yl)Carbamoyl)Pyrrolidin-3-Yl)Methyl)Benzoic Acid Di-Trifluoroacetate]", "Ki": "< 500"}
{"smiles": "C[C@H](NC(=O)[C@H]1C[C@@H](c2ccccc2)CCN1)C(=O)NCc1ccc(C#N)s1", "note": "[Compound I-92, (2R,4S)—N—((S)-1-(((5-Cyanothiophen-2-yl)methyl)amino)-1-oxopropan-2-yl)-4-phenylpiperidine-2-carboxamide hydrochloride]", "Ki": "2500 to 10000"}
{"smiles": "C[C@H](NC(=O)[C@H]1C[C@@H](c2ccc3ccccc3c2)CCN1)C(=O)NCc1ccc(C(=N)N)cc1", "note": "[Compound I-70, (2R,4S)—N—((S)-1-((4-Carbamimidoylbenzyl)Amino)-1-Oxopropan-2-Yl)-4-(Naphthalen-2-Yl)Piperidine-2-Carboxamide Di-Trifluoroacetate]", "Ki": "< 500"}
{"smiles": "Cc1nc(N)ccc1CNC(=O)[C@H](C)NC(=O)[C@H]1C[C@H](Cc2cc(Br)c(Br)s2)CN1", "note": "[Compound I-17, (2R,4R)—N—((S)-1-(((6-Amino-2-Methylpyridin-3-Yl)Methyl)Amino)-1-Oxopropan-2-Yl)-4-((4,5-Dibromothiophen-2-Yl)Methyl)Pyrrolidine-2-Carboxamide Di-Trifluoroacetate]", "Ki": "< 500"}
{"smiles": "Cc1cccc(C2CN[C@@H](C(=O)N[C@@H](C)C(=O)NCc3ccc(C(=N)N)cc3)C2)c1", "note": "(single isomer, unassigned) [Compound I-14, N-(1-((4-Carbamimidoylbenzyl)amino)-1-oxopropan-2-yl)-4-(m-tolyl)pyrrolidine-2-carboxamide]", "Ki": "< 500"}
{"smiles": "C[C@H](NC(=O)[C@H]1C=C(C2(c3ccccc3)CC2)CN1)C(=O)NCc1ccc(C(=N)N)cc1", "note": "[Compound I-52, (R)—N—((S)-1-((4-Carbamimidoylbenzyl)Amino)-1-Oxopropan-2-Yl)-4-(1-Phenylcyclopropyl)-2,5-Dihydro-1H-Pyrrole-2-Carboxamide Di-Trifluoroacetate]", "Ki": "< 500"}
{"smiles": "C[C@H](NC(=O)[C@H]1C[C@H](c2ccccc2)CN1)C(=O)NCc1cc2ncccc2[nH]1", "note": "[Compound I-6, (2R,4R)—N—((S)-1-(((1H-Pyrrolo[3,2-b]pyridin-2-yl)methyl)amino)-1-oxopropan-2-yl)-4-phenylpyrrolidine-2-carboxamide di-trifluoroacetate]", "Ki": "500 to 2500"}
{"smiles": "C[C@H](NC(=O)[C@H]1C[C@@H](c2cccc(-n3cccn3)c2)CCN1)C(=O)NCc1cc2cnccc2[nH]1", "note": "[Compound I-80, (2R,4S)-4-(3-(1H-Pyrazol-1-Yl)Phenyl)-N—((S)-1-(((1H-Pyrrolo[3,2-C]Pyridin-2-Yl)Methyl)Amino)-1-Oxopropan-2-Yl)Piperidine-2-Carboxamide Dihydrochloride]", "Ki": "< 500"}
